Data set [1] concerns Murine melanoma B16 4A5 cells. Nature of the data set: Cell cycle by FACScan analysis. In kind it is cell-based. The protocol: (§1) Murine melanoma B16 4A5 and B16 F10 cells were treated with taurolidine (0-200 μg/ml), X-ray (Roentgen) radiation (0-4 Gy), or their combination for different time points. Cell cycle was assessed by FACScan analysis. Cell apoptosis and necrosis were determined by FACScan analysis and MTT assay, and further confirmed by DNA gel electrophoresis.

Data set [2] deals with Murine melanoma B16 F10 cells. Nature of the data set: Cell cycle by FACScan analysis. The class given is cell-based. The protocol:
as §1

For data set [3], the system named is Murine melanoma B16 4A5 cells. Nature of the data set: Cell apoptosis and necrosis by FACScan analysis, MTT assay, DNA gel electrophoresis. The class given is cell-based. Here is the method: as §1
(In general: Tetrazolium assays rely on reduction of a dye to a coloured formazan, in cell work by metabolically active cells.)

For data set [4], the system named is Murine melanoma B16 F10 cells. The data set is described as above. The class given is cell-based. To be noted: taurolidine 10-200 μg/ml. Here is the method:
as §1

The subject of another data set is B16 4A5 cells. Briefly: Melanoma tumour growth in vivo, B16 4A5 cells injected into right flank. Further details: species or system C57BL/6 mice. The protocol: C57BL/6 mice (8-10 week old) (n=120) were injected with B16 4A5 cells (5×10^5 per mouse) into the right flank and divided into control, PVP (solvent for taurolidine), taurolidine (5 mg/mouse, i.p), radiation (5 Gy/mouse), and taurolidine plus radiation. Tumour growth rate, tumour/body weight ratio, lung metastases, and survival rate were recorded. Intra-tumour cell mitosis/apoptosis index, microvessel desity, and splenic cytotoxic T-lymphocyte (CTL) and nature killer (NK) cell-mediated cytotoxic activity were also accessed.

A short description of data set [5]: Evaluation of crystalline taurolidine powder after sterilisation by gamma-radiation. In kind it is physicochemical. Here is the method:
Two batches of normal crystalline taurolidine powder were produced and sterilised by gamma-radiation. The taurolidine crystals 0.5 g were weighed into 5 ml vials under sterile conditions and laminar flow. The vials were closed by rubber stoppers and seal caps. The closed vials were then radiated with gamma rays of 25 kGy (Range certification 26-30 kGy) and subsequently analysed.

A short description of data set [6]: Gamma irradiation of aqueous 1% taurolidine solution, radiolysis products. In kind it is physicochemical. To be noted: approx. 25 gKy, aqueous 1% solution in 500 ml glass bottles. Here is the method: Examination of an aqueous 1% taurolidine solution for radiolysis products. After γ-irradiation (approx. 25 gKy) of a 1% taurolidine solution contained in 500 ml glass bottles the following products can be isolated, or quantitatively determined by means of IR spectroscopy, HPLC/MS analysis, amino acid analysis: […]

[7] abbreviates: taurolidine alone, 0-200 μg/ml, different time points.
[8] abbreviates: taurolidine in combination with X-ray radiation (0-4 Gy).
Where [9] appears, read: taurolidine 5 mg/mouse i.p. plus radiation 5 Gy/mouse.
Where [10] appears, read: taurolidine 5 mg/mouse i.p. plus radiation 5 Gy/mouse vs taurolidine alone (p<0.01) or radiation alone (p<0.01).

Structures are written as SMILES.

As for `O=S1(=O)CCN(CN2CCS(=O)(=O)NC2)CN1` [taurolidine], the cell cycle result in data set [1] (setting [7]) is “cell cycle at G0/G1 phase with an enhanced sub-G1 population in a dose- and time-dependent manner”. For the same compound, the cell cycle result in data set [1] (setting [8]) is “cell cycle arrest at G2/M phase with absence of sub-G1 population”. Also, the cell cycle result in data set [2] (setting [7]) was “cell cycle at G0/G1 phase with an enhanced sub-G1 population in a dose- and time-dependent manner”. Also, the cell cycle result in data set [2] (setting [8]) was “cell cycle arrest at G2/M phase with absence of sub-G1 population”. In addition, the apoptosis entry in data set [3] (25 μg/ml taurolidine alone) is listed as “failed to induce apoptosis”. The apoptosis in data set [3] (25 μg/ml taurolidine in combination with 0.5 Gy radiation) is reported as 70%. For the same compound, in data set [3] (taurolidine 10-200 μg/ml), the cell apoptosis entry is “dose- and time-dependent cell apoptosis”. For the same compound, in data set [4], the cell apoptosis result is “dose- and time-dependent cell apoptosis”. In the data set on B16 4A5 cells (setting [9]), the “nature killer (NK) cell cytotoxic activity” value is “enhanced”, the “splenic cytotoxic T-lymphocyte (CTL) cytotoxic activity” value is “enhanced” and the survival entry is reported as “improved survival”. In the data set on B16 4A5 cells (setting [10]), the lung metastatic nodules result is reported as “greater reduction”, the tumour growth rate result was “greater reduction” and the tumour/body weight ratio result is listed as “greater reduction”. Besides, in the data set on B16 4A5 cells (taurolidine 5 mg/mouse i.p. plus radiation 5 Gy/mouse, compared to untreated animals (p<0.001)), the “primary and metastatic melanoma tumour growth” value is on record as “significantly attenuated”. Moreover, the “intra-tumour cell mitosis/apoptosis index” value in the data set with B16 4A5 cells (taurolidine plus radiation group) is “significant decreased”. Further, in data set [5], the Solubility was 1% and the “evaluation of stability after sterilization by gamma radiation” value was “identical with non-radiated crystals”. For the same compound, in data set [5] (crystalline powder after gamma rays of 25 kGy), the Endotoxins entry is recorded as “negative”. Moreover, the “amount after γ-irradiation of a 1% taurolidine solution” value in data set [6] was 3,900 mg. Moreover, the “content after γ-irradiation of a 1% taurolidine solution” value in data set [6] (IR, HPLC/MS, amino acid analysis) is reported as 0.78%.

(Values after patent publication US7928102B2, “Irradiated compositions and treatment of cancers with radiation in combination with taurolidine and/or taurultam” (Ed. Geistlich Soehne AG fuer Chemische Industrie, priority 2006, dated 2011).)
